Source: PubChem BioAssay AID256 (DTP/NCI, 2004)
“And” between values parts separate entries of the source, which are not always exact repeats. Equal values may be shown once. Inconclusive results and toxic doses are left out. Starred links: 1 amine or outer side, 2 acyl side, 3 side chain; linkers in the order of their positions; H or OH if unused. Positions of bridges follow the written chain, without caps; N, C: chain ends. Non-standard residues stand in square brackets, D forms with d. Residues, ends and D or L forms follow the SMILES beside them. Chains are numbered I, II in the order given. Actinocin(9to1) = Cc1c2oc3c(C)ccc(C(=O)[*:1])c3nc-2c(C(=O)[*:2])c(N)c1=O; aThr = C[C@H](O)[C@H](N)C(=O)O; NMeV = CN[C@H](C(=O)O)C(C)C; Sar = CNCC(=O)O

Tested on: CD2F1 mice, L1210 leukemia ip, survival T/C
Assay: NCI In Vivo Anticancer Drug Screen. Data for tumor model L1210 Leukemia (intraperitoneal) in CD2F1 (CDF1) mice
Details: higher = longer survival
Outline: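 Compound-dosed mice with transplantable tumor versus matched vehicle controls; endpoint ratio T/C reported.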

[1] = endpoint: mean survival time, dose: 50.0 mg/kg/injection, schedule: Q01DX009 (ip), vehicle: saline with Tween-80
[2] = endpoint: mean survival time, dose: 100.0 mg/kg/injection, schedule: Q01DX009 (ip), vehicle: saline with Tween-80
[3] = endpoint: mean survival time, dose: 200.0 mg/kg/injection, schedule: Q01DX009 (ip), vehicle: saline with Tween-80
[4] = endpoint: mean survival time, dose: 100.0 mg/kg/injection, schedule: Q01DX001 (ip), vehicle: saline with Tween-80
[5] = endpoint: mean survival time, dose: 400.0 mg/kg/injection, schedule: Q01DX009 (ip), vehicle: saline with Tween-80
[6] = endpoint: mean survival time, dose: 50.0 mg/kg/injection, schedule: Q01DX009 (ip), vehicle: Klucel (hydroxypropylcellulose) (HPC)
[7] = endpoint: mean survival time, dose: 100.0 mg/kg/injection, schedule: Q01DX009 (ip), vehicle: Klucel (hydroxypropylcellulose) (HPC)
[8] = endpoint: mean survival time, dose: 100.0 mg/kg/injection, schedule: Q04DX003 (ip), vehicle: saline with Tween-80
[9] = endpoint: mean survival time, dose: 200.0 mg/kg/injection, schedule: Q04DX003 (ip), vehicle: saline with Tween-80
[10] = endpoint: mean survival time, dose: 400.0 mg/kg/injection, schedule: Q04DX003 (ip), vehicle: saline with Tween-80

## CCCCC/C=C/C/C=C\CCCCCCCC1=C(O)C(=O)C(OC)=C(OC)C1=O
endpoint: mean survival time, dose: 6.25 mg/kg/injection, schedule: Q01DX009 (ip), vehicle: saline with Tween-80
  T/C: 120 % of control
endpoint: mean survival time, dose: 12.5 mg/kg/injection, schedule: Q01DX009 (ip), vehicle: saline with Tween-80
  T/C: 106 % of control
endpoint: mean survival time, dose: 25.0 mg/kg/injection, schedule: Q01DX009 (ip), vehicle: saline with Tween-80
  T/C: 98 % of control
[1]
  T/C: 102 % of control
[2]
  T/C: 102 % of control
[3]
  T/C: 106 % of control

## COc1cc2ccnc(Cc3ccc4c(c3)OCO4)c2cc1OC
endpoint: mean survival time, dose: 100.0 mg/kg/injection, schedule: Q01DX009 (ip), vehicle: saline
  T/C: 94 % of control
endpoint: mean survival time, dose: 100.0 mg/kg/injection, schedule: Q04DX003 (ip), vehicle: saline sonified
  T/C: 95 % of control
endpoint: mean survival time, dose: 200.0 mg/kg/injection, schedule: Q01DX009 (ip), vehicle: saline
  T/C: 95 % of control
endpoint: mean survival time, dose: 200.0 mg/kg/injection, schedule: Q04DX003 (ip), vehicle: saline sonified
  T/C: 105 % of control
endpoint: mean survival time, dose: 400.0 mg/kg/injection, schedule: Q01DX009 (ip), vehicle: saline
  T/C: 95 % of control
endpoint: mean survival time, dose: 400.0 mg/kg/injection, schedule: Q04DX003 (ip), vehicle: saline sonified
  T/C: 93 % of control

## CC(=O)OC1CC2(O)C3CCC4CC(O)CCC4(C)C3CCC2(C)C1C1=CC(=O)OC1 (stereo not given)
[4]
  T/C: 98 % of control
endpoint: mean survival time, dose: 200.0 mg/kg/injection, schedule: Q01DX001 (ip), vehicle: saline with Tween-80
  T/C: 101 % of control

## CS/C(N)=N\S(=O)(=O)c1ccc(NC(C)=O)cc1
[2]
  T/C: 98 % of control
[3]
  T/C: 95 % of control
[5]
  T/C: 106 % of control

## Cc1c2oc3c(C)ccc(C(=O)N[C@@H]4C(=O)N[C@H](C(C)C)C(=O)N5CCC[C@H]5C(=O)N(C)CC(=O)N(C)[C@@H](C(C)C)C(=O)O[C@H]4C)c3nc-2c(C(=O)N[C@@H]2C(=O)N[C@H](C(C)C)C(=O)N3CCC[C@H]3C(=O)N(C)CC(=O)N(C)[C@@H](C(C)C)C(=O)O[C@H]2C)c(N)c1=O (I: [aThr][dV]P[Sar][NMeV] / II: [aThr][dV]P[Sar][NMeV]; ester I:1-I:C, II:1-II:C; linker I:N-II:N via Actinocin(9to1))
endpoint: mean survival time, dose: 0.01 mg/kg/injection, schedule: Q04DX003 (ip), vehicle: saline
  T/C: 101 % of control
endpoint: mean survival time, dose: 0.02 mg/kg/injection, schedule: Q04DX003 (ip), vehicle: saline
  T/C: 105 % of control
endpoint: mean survival time, dose: 0.03 mg/kg/injection, schedule: Q04DX003 (ip), vehicle: saline
  T/C: 107 % of control
endpoint: mean survival time, dose: 0.05 mg/kg/injection, schedule: Q04DX003 (ip), vehicle: saline
  T/C: 110 % of control
endpoint: mean survival time, dose: 0.06 mg/kg/injection, schedule: Q01DX009 (ip), vehicle: saline
  T/C: 99 % of control
endpoint: mean survival time, dose: 0.1 mg/kg/injection, schedule: Q01DX007 (ip), vehicle: other
  T/C: 162 % of control
endpoint: mean survival time, dose: 0.1 mg/kg/injection, schedule: Q01DX009 (ip), vehicle: other
  T/C: 120 % of control
endpoint: mean survival time, dose: 0.1 mg/kg/injection, schedule: Q03DX003 (ip), vehicle: other
  T/C: 165 % of control
endpoint: mean survival time, dose: 0.2 mg/kg/injection, schedule: Q01DX009 (ip), vehicle: other
  T/C: 90 % of control
endpoint: mean survival time, dose: 0.2 mg/kg/injection, schedule: Q01DX009 (ip), vehicle: saline
  T/C: 88 % of control
endpoint: mean survival time, dose: 0.2 mg/kg/injection, schedule: Q04DX003 (ip), vehicle: other
  T/C: 164 % of control
endpoint: mean survival time, dose: 0.4 mg/kg/injection, schedule: Q01DX001 (ip), vehicle: saline
  T/C: 114 % of control and 120 % of control
endpoint: mean survival time, dose: 0.4 mg/kg/injection, schedule: Q03DX003 (ip), vehicle: other
  T/C: 86 % of control
endpoint: mean survival time, dose: 0.6 mg/kg/injection, schedule: Q01DX001 (ip), vehicle: saline
  T/C: 122 % of control
endpoint: mean survival time, dose: 6.25 micrograms/kg/injection, schedule: Q01DX009 (ip), vehicle: saline + alcohol
  T/C: 104 % of control
endpoint: mean survival time, dose: 6.3 micrograms/kg/injection, schedule: Q01DX009 (ip), vehicle: water
  T/C: 106 % of control
endpoint: mean survival time, dose: 12.5 micrograms/kg/injection, schedule: Q01DX009 (ip), vehicle: saline + alcohol
  T/C: 107 % of control
endpoint: mean survival time, dose: 12.5 micrograms/kg/injection, schedule: Q01DX009 (ip), vehicle: water
  T/C: 114 % of control and 112 % of control
endpoint: mean survival time, dose: 25.0 micrograms/kg/injection, schedule: Q01DX009 (ip), vehicle: saline + alcohol
  T/C: 117 % of control
endpoint: mean survival time, dose: 25.0 micrograms/kg/injection, schedule: Q01DX009 (ip), vehicle: water
  T/C: 118 % of control and 120 % of control
endpoint: mean survival time, dose: 50.0 micrograms/kg/injection, schedule: Q01DX009 (ip), vehicle: saline + alcohol
  T/C: 109 % of control
endpoint: mean survival time, dose: 100.0 micrograms/kg/injection, schedule: Q01DX009 (ip), vehicle: water
  T/C: 115 % of control
endpoint: median survival time, dose: 0.07 mg/kg/injection, schedule: Q04DX003 (ip), vehicle: saline
  T/C: 122 % of control
endpoint: median survival time, dose: 0.13 mg/kg/injection, schedule: Q01DX001 (ip), vehicle: saline
  T/C: 115 % of control and 117 % of control and 118 % of control
endpoint: median survival time, dose: 0.25 mg/kg/injection, schedule: Q01DX001 (ip), vehicle: saline
  T/C: 118 % of control and 112 % of control
endpoint: median survival time, dose: 0.33 mg/kg/injection, schedule: Q04DX003 (ip), vehicle: saline
  T/C: 89 % of control
endpoint: median survival time, dose: 0.5 mg/kg/injection, schedule: Q01DX001 (ip), vehicle: saline
  T/C: 122 % of control
endpoint: median survival time, dose: 12.5 micrograms/kg/injection, schedule: Q01DX009 (ip), vehicle: saline + alcohol
  T/C: 113 % of control
endpoint: median survival time, dose: 25.0 micrograms/kg/injection, schedule: Q01DX009 (ip), vehicle: saline + alcohol
  T/C: 117 % of control
endpoint: median survival time, dose: 200.0 micrograms/kg/injection, schedule: Q01DX009 (ip), vehicle: saline + alcohol
  T/C: 166 % of control

## CN(C)[C@@H]1C(=O)C(C(N)=O)=C(O)[C@]2(O)C(=O)C3C(=O)c4c(O)ccc(Cl)c4[C@](C)(O)[C@H]3C[C@@H]12 (stereo not given in full)
[6]
  T/C: 107 % of control
[7]
  T/C: 118 % of control
endpoint: mean survival time, dose: 225.0 mg/kg/injection, schedule: Q01DX009 (ip), vehicle: acetone
  T/C: 101 % of control

## C=C1CC(C)(Cn2c(N)nc3nc[nH]c3c2=O)OC1=O (stereo not given)
endpoint: median survival time, dose: 5.38 mg/kg/injection, schedule: Q01DX005 (ip), vehicle: water
  T/C: 97 % of control
endpoint: median survival time, dose: 10.75 mg/kg/injection, schedule: Q01DX005 (ip), vehicle: water
  T/C: 97 % of control
endpoint: median survival time, dose: 21.5 mg/kg/injection, schedule: Q01DX005 (ip), vehicle: water
  T/C: 97 % of control
endpoint: median survival time, dose: 43.0 mg/kg/injection, schedule: Q01DX005 (ip), vehicle: water
  T/C: 112 % of control

## CCOc1ccc(C(=O)OC(CN(CC)CC)c2ccccc2)cc1 (stereo not given)
endpoint: mean survival time, dose: 25.0 mg/kg/injection, schedule: Q04DX003 (ip), vehicle: saline
  T/C: 102 % of control
endpoint: mean survival time, dose: 50.0 mg/kg/injection, schedule: Q04DX003 (ip), vehicle: saline
  T/C: 102 % of control
endpoint: mean survival time, dose: 100.0 mg/kg/injection, schedule: Q04DX003 (ip), vehicle: saline
  T/C: 89 % of control

## Cc1ccc([N+](=O)[O-])cc1NC(=O)NNC(=O)CNC(=O)Nc1cccc(C(F)(F)F)c1
[2]
  T/C: 92 % of control
[3]
  T/C: 89 % of control
[5]
  T/C: 96 % of control

## O=C(NCCNC(=O)Nc1ccc(Cl)cc1)Nc1ccc(Cl)cc1
[2]
  T/C: 105 % of control
[8]
  T/C: 88 % of control
[3]
  T/C: 107 % of control
[9]
  T/C: 90 % of control
[5]
  T/C: 96 % of control
[10]
  T/C: 88 % of control

## CSC(=O)C(=O)SC
endpoint: mean survival time, dose: 50.0 mg/kg/injection, schedule: Q01DX001 (ip), vehicle: saline with Tween-80
  T/C: 100 % of control
[4]
  T/C: 108 % of control

## O=C(CCN1CCCCC1)c1ccc(C(F)(F)F)cc1
endpoint: mean survival time, dose: 3.13 mg/kg/injection, schedule: Q01DX009 (ip), vehicle: water
  T/C: 90 % of control
endpoint: mean survival time, dose: 6.25 mg/kg/injection, schedule: Q01DX009 (ip), vehicle: water
  T/C: 90 % of control

## Cc1ccc(NC(=O)c2ccccc2Cl)cc1C
[8]
  T/C: 97 % of control
[9]
  T/C: 103 % of control
[10]
  T/C: 93 % of control

## CC1C(OC(=O)CCl)CCC2C1(C)CCC1C2(C)CCC2(C)C3CC(C)(C)CCC3(C)CCC12C (stereo not given)
endpoint: mean survival time, dose: 100.0 mg/kg/injection, schedule: Q01DX001 (ip), vehicle: saline
  T/C: 97 % of control
endpoint: mean survival time, dose: 200.0 mg/kg/injection, schedule: Q01DX001 (ip), vehicle: saline
  T/C: 97 % of control
endpoint: mean survival time, dose: 400.0 mg/kg/injection, schedule: Q01DX001 (ip), vehicle: saline
  T/C: 97 % of control

## Cc1cc(OCC(=O)O)ccc1Cl
[6]
  T/C: 100 % of control
[7]
  T/C: 104 % of control
endpoint: mean survival time, dose: 200.0 mg/kg/injection, schedule: Q01DX009 (ip), vehicle: Klucel (hydroxypropylcellulose) (HPC)
  T/C: 104 % of control

## COc1cc(OC)c(NC(=O)Oc2ccc(C=O)cc2OC)cc1Cl
[1]
  T/C: 86 % of control
[2]
  T/C: 96 % of control

## c1ccc(C(=NN=C(c2ccccc2)c2ccccc2)c2ccccc2)cc1
[8]
  T/C: 97 % of control
[9]
  T/C: 97 % of control
[10]
  T/C: 95 % of control
endpoint: mean survival time, dose: 800.0 mg/kg/injection, schedule: Q04DX003 (ip), vehicle: saline with Tween-80
  T/C: 92 % of control
